In the supplement of paper PMC10307832:

Tests used:
Assay in all cases: relative viability (nuclei count vs DMSO), 5 days (fraction); higher = more cells survive
[1] = compound: C1/C(=C\C2=CC=CS2)/C(=O)/C(=C/C3=CC=CS3)/C1 + CC(C)C[C@H](NC(=O)[C@H](Cc1ccccc1)NC(=O)c1cnccn1)B(O)O [Bortezomib] (partner 0.002 µM)
Procedure, shortened: (§1)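 Relative viability was taken as the ratio of nuclei in treated wells to nuclei in vehicle wells. Lung cancer cell lines in 1536-well plates received compounds by pin tool one day after seeding, either one drug alone or a fixed anchor-drug dose plus five library-drug doses (not always all listed) in √10 steps. Nuclei were counted on 4× images after 5 days of treatment, and values are medians of duplicate plates.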

[2] = compound: C1/C(=C\C2=CC=CS2)/C(=O)/C(=C/C3=CC=CS3)/C1 + COc1cc2c(Oc3ccc(NC(=O)C4(C(=O)Nc5ccc(F)cc5)CC4)cc3F)ccnc2cc1OCCCN1CCOCC1 [Foretinib] (partner 0.25 µM)
Procedure, shortened: as §1

TPCA-1 + Tozasertib = compound: C1=CC(=CC=C1C2=CC(=C(S2)NC(=O)N)C(=O)N)F [TPCA-1] + Cc1cc(Nc2cc(N3CCN(C)CC3)nc(Sc3ccc(NC(=O)C4CC4)cc3)n2)n[nH]1 [Tozasertib] (partner 0.1 µM)
Procedure, shortened: as §1

[3] = compound: C[C@]12O[C@H](C[C@]1(O)CO)n1c3ccccc3c3c4c(c5c6ccccc6n2c5c31)CNC4=O [Lestaurtinib] + O=C(CCCCCCC(=O)Nc1ccccc1)NO [Vorinostat] (partner 1 µM)
Procedure, shortened: as §1

Cell Line | relative viability ([1]; first compound 0.2 µM) | relative viability ([1]; first compound 0.6325 µM) | relative viability ([1]; first compound 2 µM) | relative viability ([1]; first compound 6.325 µM) | relative viability ([1]; first compound 20 µM) | relative viability ([2]; first compound 0.2 µM) | relative viability ([2]; first compound 0.6325 µM) | relative viability ([2]; first compound 2 µM) | relative viability ([2]; first compound 6.325 µM) | relative viability ([2]; first compound 20 µM) | relative viability (TPCA-1 + Tozasertib; first compound 0.04 µM) | relative viability (TPCA-1 + Tozasertib; first compound 0.1265 µM) | relative viability (TPCA-1 + Tozasertib; first compound 0.4 µM) | relative viability (TPCA-1 + Tozasertib; first compound 1.265 µM) | relative viability (TPCA-1 + Tozasertib; first compound 4 µM) | relative viability ([3]; first compound 0.005 µM) | relative viability ([3]; first compound 0.01581 µM) | relative viability ([3]; first compound 0.05 µM) | relative viability ([3]; first compound 0.1581 µM) | relative viability ([3]; first compound 0.5 µM)
NCI-H1355 | 1.21 | 1.2 | 1.21 | 1.1 | 1.14 | 1.01 | 0.877 | 0.995 | 0.913 | 0.954 | 0.595 | 0.574 | 0.597 | 0.461 | 0.254 | 0.733 | 0.675 | 0.457 | 0.412 | 0.31
NCI-H1437 | 0.544 | 0.503 | 0.479 | 0.495 | 0.479 | 1.31 | 1.3 | 1.25 | 1.1 | 1.23 | 0.434 | 0.39 | 0.42 | 0.385 | 0.372 | 0.819 | 1 | 0.843 | 0.731 | 0.525
NCI-H1650 | 0.221 | 0.231 | 0.327 | 0.202 | 0.186 | 1.15 | 1.16 | 1.41 | 1.12 | 1.18 | 0.386 | – | 0.459 | 0.339 | 0.257 | 0.667 | 0.528 | 0.784 | 0.54 | 0.491
NCI-H1651 | 0.876 | 0.995 | 0.916 | 0.914 | 0.925 | 0.797 | 0.815 | 0.785 | 0.671 | 0.692 | 0.678 | 0.646 | 0.794 | 0.652 | 0.521 | 0.555 | 0.617 | 0.539 | 0.58 | 0.23
NCI-H1666 | 0.724 | 0.67 | 0.643 | 0.559 | 0.666 | 0.99 | 1.01 | 0.965 | 0.865 | 0.958 | 0.627 | 0.598 | 0.635 | 0.543 | 0.461 | 1.1 | 1.22 | 1.24 | 0.998 | 0.799
NCI-H1734 | 1.03 | 0.953 | 0.906 | 0.805 | 0.881 | 0.805 | 0.939 | 0.92 | 0.797 | 0.818 | 0.272 | 0.29 | 0.266 | 0.264 | 0.264 | 0.872 | 0.824 | 0.525 | 0.258 | 0.212
NCI-H1755 | 1.01 | 0.897 | 1.03 | 0.853 | 0.928 | 0.931 | 0.959 | 1.01 | 0.817 | 0.928 | 0.57 | 0.526 | 0.52 | 0.511 | 0.374 | 0.654 | 0.74 | 0.674 | 0.397 | 0.356
NCI-H1915 | 0.982 | 0.97 | 1.02 | 0.908 | 0.895 | 1.09 | 1.1 | 1.01 | 1.07 | 1.1 | 0.435 | 0.428 | 0.435 | 0.362 | 0.229 | 0.512 | 0.489 | 0.427 | 0.325 | 0.162
NCI-H1975 | 0.435 | 0.421 | 0.361 | 0.334 | 0.367 | 0.971 | 0.979 | – | 0.771 | 0.895 | 0.796 | 0.697 | 0.737 | 0.407 | 0.312 | 0.755 | 0.735 | 0.617 | 0.578 | 0.382
NCI-H1993 | 1.07 | 0.946 | 1.36 | 0.915 | 1.19 | 0.748 | 0.751 | 0.75 | 0.572 | 0.745 | 0.573 | 0.562 | 0.655 | 0.606 | 0.559 | 0.823 | 0.808 | 0.754 | 0.455 | 0.485
NCI-H2009 | 1.04 | 0.939 | 1.08 | 0.736 | 0.991 | 1.31 | 1.23 | 1.2 | 1.2 | 1.21 | 0.8 | 0.686 | 0.834 | 0.649 | 0.545 | 0.782 | 0.759 | 0.665 | 0.689 | 0.501
NCI-H2023 | 0.964 | 0.942 | 1.21 | 0.869 | 0.868 | – | 0.949 | 0.998 | 0.82 | 1.05 | 0.357 | 0.282 | 0.335 | 0.15 | 0.0965 | 0.639 | 0.445 | 0.577 | 0.371 | 0.117
NCI-H2085 | 1.16 | 1.08 | 1.15 | 1.02 | 1.03 | 1.09 | 1.05 | 0.984 | 0.927 | 0.883 | 0.863 | 0.72 | 0.746 | 0.735 | 0.479 | 0.741 | 0.812 | 0.869 | 0.751 | 0.661
NCI-H2087 | 0.922 | 0.742 | 0.963 | 0.512 | 0.73 | 1.26 | 1.28 | 1.15 | 1.17 | 1.13 | 0.243 | 0.239 | 0.28 | 0.2 | 0.116 | 0.815 | 0.652 | 0.667 | 0.474 | 0.373
NCI-H2126 | 1.16 | 1.1 | 1.21 | 0.994 | 1.1 | 1.38 | 0.985 | 1.3 | 1.08 | 1.08 | 0.877 | 0.768 | 0.886 | 0.829 | 0.338 | 0.805 | 0.886 | 0.693 | 0.599 | 0.465
NCI-H2228 | 1.11 | 0.987 | 1.44 | 0.808 | 0.86 | 0.816 | 0.992 | 0.869 | 0.913 | 0.715 | 0.299 | 0.178 | 0.285 | 0.232 | 0.108 | 0.601 | 0.779 | 0.352 | 0.228 | 0.211
